Results on 10 compounds are retold here after ChEMBL document CHEMBL1201862, “PubChem BioAssay data set” (2004).

What all share (experiment): NCI tumour cell line growth inhibition, 48 h
Assay [1] has as its system 786-0.
Assay [2] deals with DU-145.
The test system of assay [3] is HOP-62.
Assay [4] relates to HT-29.
For assay [5], the system named is M14.
For assay [6], the system named is MDA-MB-231.
Assay [7] has as its system MDA-MB-435.
Assay [8] has as its system MDA-N.
For assay [9], the system named is MOLT-4.
Assay [10] has as its system Malme-3M.
The test system of assay [11] is NCI-H23.
Assay [12] relates to OVCAR-5.
Assay [13] has as its system OVCAR-8.
The test system of assay [14] is RPMI-8226.
Assay [15] deals with RXF 393.
Assay [16] concerns SF-539.
Assay [17] deals with SK-MEL-28.
Assay [18] deals with SK-OV-3.
The subject of assay [19] is SNB-19.
Assay [20] concerns UO-31.

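Briefly, cells in 96-well plates were exposed to five compound concentrations for 48 h, and endpoints were estimated by linear interpolation. GI50 is the concentration that inhibits growth by half.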 Calls of active or inactive are those of the source. Cut-off read from the data, not from the text of the source: active = GI50 up to about 1.1 µM and inactive = higher.

As for `O=C(Nc1cnc(O)nc1O)Oc1ccccc1`, the GI50 in assay [1], in assay [2], in assay [3], in assay [4], in assay [5] and in [6] was > 100 µM (inactive) throughout. Also, the GI50 in assay [7], in [8], in assay [9], in assay [10], in [11] and in assay [12] was > 100 µM (inactive) in each case. Moreover, the GI50 in assay [13], in [14], in assay [15], in assay [16], in [17] and in [18] was > 100 µM (inactive) throughout. The GI50 in [19] and in assay [20] was > 100 µM (inactive) throughout.
For the compound `CCN(CC)CCn1c2ccccc2c(=O)c2c(O)ccc(O)c21`, the GI50 was 34.1 µM (inactive) in [1]; > 59.4 µM (inactive) in assay [2]; 50.5 µM (inactive) in assay [3]; 35.9 µM (inactive) in assay [4]; 42 µM (inactive) in assay [5]; 16.1 µM (inactive) in assay [6]. Also, the GI50 was 18.6 µM (inactive) in [7]; 18.7 µM (inactive) in [8]; 18.5 µM (inactive) in assay [9]; 24.7 µM (inactive) in assay [10]; 45.6 µM (inactive) in assay [11]; 55.7 µM (inactive) in assay [12]. Moreover, the GI50 was 19.6 µM (inactive) in assay [13]; 19.9 µM (inactive) in assay [14]; 19 µM (inactive) in [15]; 33.8 µM (inactive) in assay [16]; 33.2 µM (inactive) in assay [17]; 69.8 µM (inactive) in assay [18]. The values for the GI50 in [19] and in assay [20] were 58.9 µM (inactive) and 47.4 µM (inactive), respectively.
As for `CCCCCC(C/C=N/N(C)C)C(O)(C(F)(F)F)C(F)(F)F` (stereo not given), the GI50 in assay [1] is 35.9 µM (inactive); in assay [2] it was 33.3 µM (inactive); in assay [3] it was 42.3 µM (inactive); in assay [4], 29 µM (inactive); in assay [5], 38.7 µM (inactive); in assay [6] it was 27.5 µM (inactive). For the same compound, the GI50 in [7] is 31 µM (inactive); in [8], 38.4 µM (inactive); in [9] it was 29.4 µM (inactive); in [10], 25.4 µM (inactive); in assay [11] it was 25.2 µM (inactive); in assay [12], 65.6 µM (inactive). Moreover, the GI50 was 41.5 µM (inactive) in [13]; 11.3 µM (inactive) in [14]; 32 µM (inactive) in assay [15]; 35.2 µM (inactive) in assay [16]; 45.8 µM (inactive) in [17]; 33.9 µM (inactive) in assay [18]. Also, the GI50 was 37 µM (inactive) in assay [19] and 36.2 µM (inactive) in assay [20].
As for `c1ccc(CC2(c3cc4ccccc4[nH]3)OCCO2)nc1`, the GI50 in [1], in [2], in [3], in [4], in assay [5] and in [6] was > 100 µM (inactive) each time. Also, the GI50 in [7] is > 100 µM (inactive); in assay [8], > 100 µM (inactive); in [9], 61.1 µM (inactive); in assay [10] it was 47.6 µM (inactive); in assay [11], > 100 µM (inactive); in assay [12], > 100 µM (inactive). Moreover, the GI50 is > 100 µM (inactive) in assay [13]; > 100 µM (inactive) in assay [14]; 88.1 µM (inactive) in assay [15]; > 100 µM (inactive) in assay [16]; > 100 µM (inactive) in [17]; > 100 µM (inactive) in [18]. For the same compound, the GI50 in assay [19] and in assay [20] was > 100 µM (inactive) throughout.
For `Oc1ccccc1/C=N/Nc1nnc2c3ccccc3c3ccccc3c2n1`, the GI50 in assay [1] is > 100 µM (inactive); in assay [2], > 100 µM (inactive); in assay [3], 42.6 µM (inactive); in assay [4], > 100 µM (inactive); in [5] it was > 100 µM (inactive); in assay [6], > 100 µM (inactive). The GI50 in [7] was 28.1 µM (inactive); in [8], 29.9 µM (inactive); in assay [9], > 100 µM (inactive); in [10], 59.6 µM (inactive); in assay [11] it was > 100 µM (inactive); in [12], > 100 µM (inactive). For the same compound, the GI50 was > 100 µM (inactive) in assay [13]; > 100 µM (inactive) in assay [14]; 25.1 µM (inactive) in assay [15]; > 100 µM (inactive) in assay [16]; > 100 µM (inactive) in assay [17]; 58.3 µM (inactive) in assay [18]. For the same compound, the GI50 in assay [19] and in [20] was > 100 µM (inactive) in each case.
With `CCc1cccc(C(C)(C)C)c1NC(=S)N/C=C(/C#N)C(N)=O`, the GI50 in assay [1], in [2], in assay [3], in assay [4], in assay [5] and in assay [6] was > 100 µM (inactive) throughout. In addition, the GI50 in assay [7], in [8], in [9], in [10], in assay [11] and in assay [12] was > 100 µM (inactive) each time. Further, the GI50 in assay [13], in assay [14], in [15], in assay [16], in assay [17] and in [18] was > 100 µM (inactive) each time. Also, the figures for the GI50 in assay [19] and in [20] were > 100 µM (inactive) and 31.3 µM (inactive), respectively.
On to `C=C(C)[C@H]1[C@@H]2OC(=O)[C@H]1[C@]1(O)C[C@H]3OC34C(=O)O[C@H]2[C@@]41C.CC(C)(O)[C@H]1[C@@H]2OC(=O)[C@H]1[C@]1(O)C[C@H]3OC34C(=O)O[C@H]2[C@@]41C` (stereo not given in full), for which the GI50 in [1], in [2], in assay [3], in assay [4], in assay [5] and in [6] was > 100 µM (inactive) each time. Moreover, the GI50 in assay [7], in assay [8], in [9], in assay [10], in [11] and in assay [12] was > 100 µM (inactive) each time. Besides, the GI50 in [13], in assay [14], in assay [15], in [16], in assay [17] and in assay [18] was > 100 µM (inactive) throughout. The GI50 in assay [19] and in assay [20] was > 100 µM (inactive) each time.
For the compound `C#CCn1c(=O)ccn(/C(=C\C(=O)OCC)C(=O)OCC)c1=O`, the GI50 in assay [1] is 2.3 µM (inactive); in [2] it was 15.6 µM (inactive); in assay [3], 23.5 µM (inactive); in assay [4] it was 2.04 µM (inactive); in assay [5] it was 4.32 µM (inactive); in assay [6], 18.1 µM (inactive). Besides, the GI50 in assay [7] was 7.33 µM (inactive); in assay [8], 15.8 µM (inactive); in [9], 2.56 µM (inactive); in [10], 1.89 µM (inactive); in assay [11], 14.9 µM (inactive); in assay [12], 13.5 µM (inactive). Besides, the GI50 in assay [13] was 2.31 µM (inactive); in assay [14], 2.73 µM (inactive); in assay [15] it was 2.08 µM (inactive); in [16], 1.86 µM (inactive); in assay [17] it was 11.7 µM (inactive); in [18], 33 µM (inactive). The figures for the GI50 in assay [19] and in assay [20] were 19.9 µM (inactive) and 13.5 µM (inactive), respectively.
As to `CCC(=O)Oc1ccc2c(c1)c(=O)c1c(NCCCN(C)C)ccc3nnn2c31`, the GI50 was 0.361 µM (active) in [1]; 1.04 µM (active) in assay [2]; 1.53 µM (inactive) in assay [3]; 0.69 µM (active) in assay [4]; 5.3 µM (inactive) in [5]; 3.44 µM (inactive) in assay [6]. In addition, the GI50 is 2.79 µM (inactive) in [7]; 3.86 µM (inactive) in assay [8]; < 0.0204 µM (active) in assay [9]; 3.98 µM (inactive) in assay [10]; 3.35 µM (inactive) in [11]; 8.28 µM (inactive) in assay [12]. For the same compound, the GI50 is 0.403 µM (active) in assay [13]; 0.767 µM (active) in assay [14]; 1.83 µM (inactive) in assay [15]; 1.71 µM (inactive) in assay [16]; 10.9 µM (inactive) in assay [17]; 4.36 µM (inactive) in assay [18]. Moreover, the figures for the GI50 in assay [19] and in [20] were 2.06 µM (inactive) and 0.953 µM (active), respectively.
Regarding `N#Cc1nc(NC(=O)c2ccccc2)sc1N`, the GI50 in [1], in assay [2], in assay [3], in assay [4], in [5] and in assay [6] was > 10 µM (inactive) each time. Moreover, the GI50 is > 10 µM (inactive) in assay [7]; > 10 µM (inactive) in assay [8]; 3.27 µM (inactive) in assay [9]; > 10 µM (inactive) in assay [10]; > 10 µM (inactive) in assay [11]; > 10 µM (inactive) in assay [12]. The GI50 in assay [13] was > 10 µM (inactive); in [14], 9.82 µM (inactive); in assay [15], > 10 µM (inactive); in [16], > 10 µM (inactive); in [17] it was > 10 µM (inactive); in [18], > 10 µM (inactive). Also, the GI50 in assay [19] and in assay [20] was > 10 µM (inactive) each time.
